Laboratory results published in a melting point compilation (Tetko et al.; mined from patent text by program, amines drawn as free bases though some values may be those of a salt).

Compound	melting point [°C]
O=C(O)c1cccc(N(CCc2ccccc2)c2nnc(-c3cccc(Oc4cccc(C(F)(F)F)c4)c3)s2)c1	92 to 93
CCCS(=O)c1sc(C(N)=O)c2c1-c1c(cnn1CC)CC2 (stereo not given)	151 to 152
CN1CCC(c2nc3cccnc3[nH]2)CC1	224 to 226
COC(=O)c1ccc(SC)c(OC2CCCC2)c1	53 to 55
Cc1oc2ccccc2c1C(=O)NCc1ccc2c(Br)c(OCC#N)ccc2c1	180 to 182
COc1cccc(NC(=O)c2ccccc2N)c1	75 to 77
CCC(=O)N(O)C(C)c1ccco1 (stereo not given)	74 to 76
c1ccc2c(c1)cnc1nnnn12	150
OC1(CNc2c(Br)cnc3ccccc23)CCCCC1	130 to 132
O=C(NCCC(Nc1ccccc1)c1ccccc1)c1ccccc1 (stereo not given)	120 to 121
CC(C)(CCOc1ccc(Cl)cc1Cl)C(=O)Cn1cncn1	62
OCc1cccc2c1[nH]c1c3cc(Br)ccc3oc21	218 to 219
CCOC(=O)c1cc2c(OCc3ccccc3)c(Cc3ccccc3)ccc2[nH]1	129 to 131
CCOC(=O)Cc1nc2c(OCc3ccccc3)cccc2n1C	106
C=C(Cc1ccc(-c2cccc3cncn23)cc1)C(=O)O	171 to 172
COCC(COC)N1CCc2cc(Nc3ncc(Cl)c(Nc4ccc(C(N)=O)cc4OC)n3)c(OC)cc2CC1	220 to 223
CC(C)(C#N)c1cc(CO)cc(Cn2cncn2)c1	111 to 113
NS(=O)(=O)c1cnc(S(=O)(=O)c2ccccc2)s1	119 to 120
COC1=CC(OC)(OC)C(I)C=C1C(=O)OCC(=O)c1ccccc1 (stereo not given)	146
O=S(Cc1nnc(-c2ccc3c(c2)CCO3)o1)c1cccc(F)c1 (stereo not given)	131 to 132
Cc1ccc(S(=O)(=O)N[C@H](COS(=O)(=O)c2ccc(C)cc2)CC(C)C)cc1	99 to 101
COc1nnc2n1C=Cc1ccccc1C2c1ccccc1 (stereo not given)	183 to 184
CCCCCCC(C)N(C(C)=O)c1ccc(I)cc1 (stereo not given)	60 to 62
COc1ccc2cc(Br)ccc2c1C(=O)N(C)C	124 to 125
N#CC1=C(c2ccccc2)Nc2n[nH]cc2C1c1cccc(C(F)(F)F)c1Cl (stereo not given)	> 250

Compound	melting point [°C]
CC(C)(F)c1nc[nH]c(=O)c1Cl	168 to 171
O=c1[nH]nc(-c2ccc(N3CCCCCC3)c([N+](=O)[O-])c2)c2ccccc12	187 to 189
NC(=O)c1cn(Cc2cccc(F)c2F)cn1	221 to 222
N#Cc1ccc(-c2csc(-n3c(=O)oc4ccccc43)n2)cc1	244 to 245
COC(=O)C1(Cc2ccc(Br)cc2)CC(=O)CN1C(=O)Nc1cc(Cl)cc(Cl)c1 (stereo not given)	194
CCC(Nc1cc(C)nc(Oc2c(C)cc(C)cc2C)c1C(=O)OC)C(C)O (stereo not given)	116 to 120
COc1cc2c(cc1OC)NC(C)C(=O)N2 (stereo not given)	151
Cc1c(CC(C)(C)C(=O)O)n(Cc2ccc(Cl)cc2)c2ccc(OCc3ccc(-c4ccccc4)cn3)cc12	177 to 179
CCOc1cc([N+](=O)[O-])c(C)c(C)c1[N+](=O)[O-]	64 to 66
OC[C@H]1COc2ccc3scc(Cl)c3c2O1	92 to 93
CC(=O)N1C(=O)C2(CC2)c2ccc(N3C(=O)C4=C(CCCC4)C3=O)cc21	237 to 238
COc1ccc(-c2ccc(C(=O)Nc3ccc4cc(CN5CCCC5)cnc4c3F)c(F)c2)cc1	182 to 183
CCCn1nc(-c2ccc(O)cc2)c2cccc(-c3ccc(F)cc3)c21	110 to 111
COc1cc2[nH]c(N(C)Cc3cccc(Oc4ncccn4)c3)nc(=O)c2c(C)c1OC	224 to 228
O=c1[nH]c2cc(Cl)ccc2c(O)c1-n1ccccc1=O	355
Cc1nn(-c2ccccn2)c2[nH]c3ccccc3c(=O)c12	199 to 200
CN(C)C(=O)OC1c2nccnc2C(=O)N1c1ccc2ccc(Cl)nc2n1 (stereo not given)	270
COc1cc2c(cc1F)CC(C)C2=O (stereo not given)	76 to 78
Oc1ccc2c(c1)COc1c-2cc2ccc(O)cc2c1-c1cccc(Cl)c1	243 to 246
O=c1c2ccc(Cl)cc2n(Cc2ccccc2)c(=O)n1S(=O)(=O)c1ccc(Cl)cc1	242 to 244
Cc1ccc(-c2ccc(S(C)(=O)=O)cc2)n1-c1ccc(-c2ccco2)c(Cl)c1	127 to 131
CC(C)(C)[Si](C)(C)Oc1ccc2c(c1)OC(c1ccc(O)cc1)c1c-2sc2cc(O[Si](C)(C)C(C)(C)C)ccc12 (stereo not given)	174 to 175
Cc1ccc(-c2nccc(C)n2)cc1	80 to 81
CC1(C)COc2cc(Cl)cc(Cl)c2C(O)(c2ccccn2)C1 (stereo not given)	156
C=COCCONC(=O)c1cc(Br)c(F)c(F)c1Nc1ccc(I)cc1F	128 to 130
